Experimental data taken from patent US9695155B2, “Herbicidal substituted pyrimidinyloxy benzene compounds” (E. I. DU PONT DE NEMOURS AND COMPANY, priority 2013, dated 2017).

What was measured:
velvetleaf [1] = test: Test A preemergence; type: in vivo, Abutilon theophrasti
Method in brief: (§1)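 Scoring: eye-based comparison with untreated controls, 0 for no effect through 100 for complete control, at about day 10. Treatments: directed soil spray preemergence; foliar spray postemergence on 2–10 cm plants at the one- to two-leaf stage. Medium: loam soil with sand.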

giant foxtail = test: Test A postemergence; type: in vivo, Setaria faberii
Method in brief: as §1

large (Lg) crabgrass [2] = test: Test A postemergence; type: in vivo, Digitaria sanguinalis
Method in brief: as §1

wheat [3] = test: Test A preemergence; type: in vivo, Triticum aestivum
Method in brief: as §1

kochia = test: Test C postemergence; type: in vivo, Kochia scoparia; conditions: for Kochia plant response rating / Plant response rating, Kochia: scale 0 to 100 (0 no effect, 100 complete control)
Method in brief: (§2)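 Sown in loam/sand → sprayed pre-emergence; or grown to 1–4 leaves in peat mix → sprayed post-emergence. Same solvent/surfactant formulation both ways. Greenhouse 13–15 d. Score 0–100 visual.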

large (Lg) crabgrass [4] = test: Test A preemergence; type: in vivo, Digitaria sanguinalis
Method in brief: as §1

velvetleaf [5] = test: Test A postemergence; type: in vivo, Abutilon theophrasti
Method in brief: as §1

soybean = test: Test C postemergence; type: in vivo, Glycine max; conditions: for Plant response rating, Soybean / Soybean plant response rating: scale 0 to 100 (0 no effect, 100 complete control)
Method in brief: as §2

oilseed rape = test: Test C postemergence; type: in vivo, Brassica napus; conditions: for Plant response rating, Oilseed Rape / Oilseed Rape plant response rating: scale 0 to 100 (0 no effect, 100 complete control)
Method in brief: as §2

pigweed = test: Test C postemergence; type: in vivo, Amaranthus retroflexus; conditions: for Plant response rating, Pigweed / Pigweed plant response rating: scale 0 to 100 (0 no effect, 100 complete control)
Method in brief: as §2

morningglory = test: Test C postemergence; type: in vivo, Ipomoea coccinea; conditions: for Plant response rating, Morningglory / Morningglory plant response rating: scale 0 to 100 (0 no effect, 100 complete control)
Method in brief: as §2

lambsquarters = test: Test C postemergence; type: in vivo, Chenopodium album; conditions: for Plant response rating, Lambsquarters / Lambsquarters plant response rating: scale 0 to 100 (0 no effect, 100 complete control)
Method in brief: as §2

Heteranthera limosa = test: Test B flooded paddy test; type: in vivo; conditions: Flood, 250 g ai/ha; 0 to 100 scale where 0 is no effect and 100 is complete control
Method in brief: (§3)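 Greenhouse flooded-pot test: compounds dosed into 3 cm standing water over 2-leaf plants, flood held constant. Rated visually after 13–15 days on 0–100 (complete control = 100); a dash marks no test result.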

wheat [6] = test: Test A postemergence; type: in vivo, Triticum aestivum
Method in brief: as §1

velvetleaf [7] = test: Test C postemergence; type: in vivo, Abutilon theophrasti; conditions: for Plant response rating, Velvetleaf / Velvetleaf plant response rating: scale 0 to 100 (0 no effect, 100 complete control)
Method in brief: as §2

rice = test: Test B flooded paddy test; type: in vivo, Oryza sativa; conditions: Flood, 250 g ai/ha; 0 to 100 scale where 0 is no effect and 100 is complete control
Method in brief: as §3

[8] = 125 g ai/ha, 0 to 100 scale where 0 is no effect and 100 is complete control
[9] = 500 g ai/ha, 0 to 100 scale where 0 is no effect and 100 is complete control
[10] = Postemergence, 31 g ai/ha, 13 to 15 days
[11] = 1000 g ai/ha, 0 to 100 scale, 0 no effect, 100 complete control, approx. 10 days
[12] = 1000 g ai/ha, 0 to 100 scale, 0 no effect, 100 complete control
[13] = 8 g ai/ha, postemergence, 0 is no effect, 100 is complete control
[14] = 16 g ai/ha, postemergence, 0 is no effect, 100 is complete control
[15] = 31 g ai/ha, postemergence, visual rating, 13 to 15 days
[16] = Postemergence, 62 g ai/ha, 13 to 15 days
[17] = 125 g ai/ha, postemergence, visual rating

## Fc1cnc(Oc2cccc(C(F)F)c2-n2cc(Cl)cn2)nc1 [Compound 94]
Velvetleaf [1]; [8]
  Plant response rating, Velvetleaf: 90
Giant foxtail; [8]
  Plant response rating, Foxtail, Giant: 70
Giant foxtail; [9]
  Plant response rating, Foxtail, Giant: 90
Large (Lg) crabgrass [2]; [8]
  Plant response rating, Crabgrass, Large: 50
Large (Lg) crabgrass [2]; [9]
  Plant response rating, Crabgrass, Large: 90
Wheat [3]; [8]
  Plant response rating, Wheat: 0
kochia; 16 g ai/ha, postemergence, visual rating, 13 to 15 days
  Kochia plant response rating: 30
kochia; 125 g ai/ha, postemergence
  Plant response rating (0 to 100), Kochia: 90
kochia; [10]
  Plant response rating, Kochia: 80
kochia; Postemergence, 62 g ai/ha
  Plant response rating, Kochia: 90
Large (Lg) crabgrass [4]; [8]
  Plant response rating, Crabgrass, Large: 100
Large (Lg) crabgrass [4]; 500 g ai/ha, 0 to 100 scale, 0 no effect, 100 complete control, approx. 10 days
  Crabgrass, Large plant response rating: 100
Velvetleaf [5]; [8]
  Plant response rating, Velvetleaf: 90
Velvetleaf [5]; [9]
  Plant response rating, Velvetleaf: 100
soybean; 125 g ai/ha, postemergence
  Plant response rating (0 to 100), Soybean: 80
soybean; [10]
  Plant response rating, Soybean: 45
soybean; Postemergence, 62 g ai/ha
  Plant response rating, Soybean: 85
Oilseed rape; 125 g ai/ha, postemergence
  Plant response rating (0 to 100), Oilseed Rape: 80
Oilseed rape; [10]
  Plant response rating, Oilseed Rape: 50
Oilseed rape; Postemergence, 62 g ai/ha
  Plant response rating, Oilseed Rape: 50
pigweed; 125 g ai/ha, postemergence
  Plant response rating (0 to 100), Pigweed: 85
pigweed; [10]
  Plant response rating, Pigweed: 80
pigweed; Postemergence, 62 g ai/ha
  Plant response rating, Pigweed: 80
morningglory; 125 g ai/ha, postemergence
  Plant response rating (0 to 100), Morningglory: 55
morningglory; [10]
  Plant response rating, Morningglory: 75
morningglory; Postemergence, 62 g ai/ha
  Plant response rating, Morningglory: 75
lambsquarters; 125 g ai/ha, postemergence
  Plant response rating (0 to 100), Lambsquarters: 85
lambsquarters; [10]
  Plant response rating, Lambsquarters: 65
lambsquarters; Postemergence, 62 g ai/ha
  Plant response rating, Lambsquarters: 75
Heteranthera limosa
  Plant response rating, Ducksalad: 40
Wheat [6]; [8]
  Plant response rating, Wheat: 0
Wheat [6]; [9]
  Plant response rating, Wheat: 50
Velvetleaf [7]; 125 g ai/ha, postemergence
  Plant response rating (0 to 100), Velvetleaf: 40
Velvetleaf [7]; [10]
  Plant response rating, Velvetleaf: 20
Velvetleaf [7]; Postemergence, 62 g ai/ha
  Plant response rating, Velvetleaf: 65
rice
  Plant response rating, Rice: 0

## Clc1cnc(Oc2ccccc2-n2cc(I)nn2)nc1 [Compound 222]
Velvetleaf [1]; [11]
  Velvetleaf plant response rating: 100
Giant foxtail; [12]
  Plant response rating, Foxtail, Giant: 90
Large (Lg) crabgrass [2]; [12]
  Plant response rating, Crabgrass, Large: 100
Wheat [3]; [11]
  Wheat plant response rating: 70
kochia; [13]
  Plant response rating (0 to 100), Kochia: 60
kochia; [14]
  Plant response rating (0 to 100), Kochia: 85
kochia; [15]
  Kochia plant response rating: 100
kochia; [16]
  Plant response rating, Kochia: 100
Large (Lg) crabgrass [4]; [11]
  Crabgrass, Large plant response rating: 100
Velvetleaf [5]; [12]
  Plant response rating, Velvetleaf: 100
soybean; [13]
  Plant response rating (0 to 100), Soybean: 40
soybean; [14]
  Plant response rating (0 to 100), Soybean: 55
soybean; [15]
  Soybean plant response rating: 65
soybean; [16]
  Plant response rating, Soybean: 60
Oilseed rape; [13]
  Plant response rating (0 to 100), Oilseed Rape: 10
Oilseed rape; [14]
  Plant response rating (0 to 100), Oilseed Rape: 5
Oilseed rape; [15]
  Oilseed Rape plant response rating: 10
Oilseed rape; [16]
  Plant response rating, Oilseed Rape: 20
pigweed; [13]
  Plant response rating (0 to 100), Pigweed: 65
pigweed; [14]
  Plant response rating (0 to 100), Pigweed: 70
pigweed; [15]
  Pigweed plant response rating: 80
pigweed; [16]
  Plant response rating, Pigweed: 85
morningglory; [13]
  Plant response rating (0 to 100), Morningglory: 40
morningglory; [14]
  Plant response rating (0 to 100), Morningglory: 90
morningglory; [15]
  Morningglory plant response rating: 45
morningglory; [16]
  Plant response rating, Morningglory: 70
lambsquarters; [13]
  Plant response rating (0 to 100), Lambsquarters: 50
lambsquarters; [14]
  Plant response rating (0 to 100), Lambsquarters: 65
lambsquarters; [15]
  Lambsquarters plant response rating: 65
lambsquarters; [16]
  Plant response rating, Lambsquarters: 75
Heteranthera limosa
  Plant response rating, Ducksalad: 50
Wheat [6]; [12]
  Plant response rating, Wheat: 40
Velvetleaf [7]; [13]
  Plant response rating (0 to 100), Velvetleaf: 35
Velvetleaf [7]; [14]
  Plant response rating (0 to 100), Velvetleaf: 40
Velvetleaf [7]; [15]
  Velvetleaf plant response rating: 35
Velvetleaf [7]; [16]
  Plant response rating, Velvetleaf: 50
rice
  Plant response rating, Rice: 0

## Clc1cnc(Oc2cccc(Cl)c2-n2cc(I)cn2)nc1 [Compound 181]
Velvetleaf [1]; 125 g ai/ha
  Velvetleaf plant response rating (0 to 100 scale): 20
Velvetleaf [1]; [9]
  Velvetleaf plant response rating: 40
Giant foxtail; [8]
  Foxtail, Giant plant response rating: 70
Giant foxtail; [9]
  Plant response rating, Foxtail, Giant: 90
Large (Lg) crabgrass [2]; [8]
  Crabgrass, Large plant response rating: 70
Large (Lg) crabgrass [2]; [9]
  Plant response rating, Crabgrass, Large: 90
Wheat [3]; 125 g ai/ha
  Wheat plant response rating (0 to 100 scale): 0
Wheat [3]; [9]
  Wheat plant response rating: 10
kochia; [14]
  Plant response rating (0 to 100), Kochia: 70
kochia; [15]
  Kochia plant response rating: 100
kochia; [17]
  Plant response rating, Kochia: 100
kochia; Postemergence, 62 g ai/ha
  Plant response rating, Kochia: 100
Large (Lg) crabgrass [4]; 125 g ai/ha
  Crabgrass, Large plant response rating (0 to 100 scale): 100
Large (Lg) crabgrass [4]; [9]
  Crabgrass, Large plant response rating: 100
Velvetleaf [5]; [8]
  Velvetleaf plant response rating: 100
Velvetleaf [5]; [9]
  Plant response rating, Velvetleaf: 100
soybean; [14]
  Plant response rating (0 to 100), Soybean: 35
soybean; [15]
  Soybean plant response rating: 50
soybean; [17]
  Plant response rating, Soybean: 95
soybean; Postemergence, 62 g ai/ha
  Plant response rating, Soybean: 50
Oilseed rape; [14]
  Plant response rating (0 to 100), Oilseed Rape: 55
Oilseed rape; [15]
  Oilseed Rape plant response rating: 60
Oilseed rape; [17]
  Plant response rating, Oilseed Rape: 100
Oilseed rape; Postemergence, 62 g ai/ha
  Plant response rating, Oilseed Rape: 60
pigweed; [14]
  Plant response rating (0 to 100), Pigweed: 85
pigweed; [15]
  Pigweed plant response rating: 98
pigweed; [17]
  Plant response rating, Pigweed: 98
pigweed; Postemergence, 62 g ai/ha
  Plant response rating, Pigweed: 85
morningglory; [14]
  Plant response rating (0 to 100), Morningglory: 15
morningglory; [15]
  Morningglory plant response rating: 20
morningglory; [17]
  Plant response rating, Morningglory: 98
morningglory; Postemergence, 62 g ai/ha
  Plant response rating, Morningglory: 75
lambsquarters; [14]
  Plant response rating (0 to 100), Lambsquarters: 75
lambsquarters; [15]
  Lambsquarters plant response rating: 100
lambsquarters; [17]
  Plant response rating, Lambsquarters: 100
lambsquarters; Postemergence, 62 g ai/ha
  Plant response rating, Lambsquarters: 100
Heteranthera limosa
  Plant response rating, Ducksalad: 75
Wheat [6]; [8]
  Wheat plant response rating: 0
Wheat [6]; [9]
  Plant response rating, Wheat: 30
Velvetleaf [7]; [14]
  Plant response rating (0 to 100), Velvetleaf: 25
Velvetleaf [7]; [15]
  Velvetleaf plant response rating: 20
Velvetleaf [7]; [17]
  Plant response rating, Velvetleaf: 70
Velvetleaf [7]; Postemergence, 62 g ai/ha
  Plant response rating, Velvetleaf: 40
rice
  Plant response rating, Rice: 0
